Laboratory results published in patent publication US10829796B2, “Bacteria identification and antimicrobial susceptibility test” (priority 2015, dated 2020).

System: bacteria in clinical bovine mastitis milk samples
Assay: Combined bacteria identification and antimicrobial susceptibility test (colour of wells, MIC) on clinical bovine mastitis milk samples
Assay type: cell-based
Procedure: Clinical bovine mastitis milk samples were collected by a vet clinic in South Island, New Zealand. Samples were stored in the freezer for several months and shipped frozen to the testing facility. In this Example, the term “clinical” means that dairy cows had clinical symptoms of an udder infection e.g. cow behaved unusual, milk clots, swollen udder among other typical symptoms. Testing was executed in microwell plate comprising of 24 wells (3×8 wells).
In addition, 20 ul of clinical mastitis sample was added to each well with a laboratory pipette.
(§1) Abbreviations • 1. 80 ul GC+10 ul Tell: 80 ul Giolitti Cantoni base broth+10 ul Tellurite solution (1%); • 2. 80 ul TSB/Esc/Fer Cit: 80 ul Tryptic soy broth containing 0.25% Esculin and 0.125% Ammonium Ferric Citrate; • 3. 80 ul TSB/Esc/Fer Cit+10 ul Genta: 80 ul Tryptic soy broth containing 0.25% Esculin and 0.125% Ammonium Ferric Citrate+10 ul of Gentamycin solution 10 mg/ml; • 4. 80 ul McC/PR25: 80 ul MacConkey broth (single strength) containing 0.0125% phenol red; and • 5. 80 ul TSB/PR25: 80 ul Tryptic soy broth containing 0.0125% phenol red. Bacteria Identification
Columns A to C and rows 1 and 2 were used for bacteria identification. A1: coagulase positive Staph; A2: Staphylococci; B1: Strep group D; B2: Strep group D; C1: general enrichment media (gram+ and gram-bacteria); C2: coliform bacteria.
Column A3 to A8: serial dilution of benzyl penicillin as potassium. Column B3 to B8: serial dilution of ceftiofur as hydrochloride. Column C3 to C8: serial dilution of cloxacillin as sodium. Antibiotic concentrations are listed as free form ranging between 4 ug/ml to 0.05 ug/ml.
Minimum inhibitory substance concentration (MIC) is here defined as the concentration if a colour change occurs between two wells (one well remains red with drug concentration 1, the other one yellow with drug concentration 2, whereas drug concentration 1 is larger than drug concentration 2) then the MIC is the value of drug concentration 1.
Table 21 indicates the microwell plate configuration #1; Drugs: Benzylpenicillin as potassium; Cloxacillin as sodium; Ceftiofur as hydrochloride; Drug concentration in each well (A3 to C8) is based on 80 μl composition+10 μl drug solution+20 μl clinical mastitis milk sample and equivalent to listed drug concentration in μg/ml; 20 ul of clinical bovine mastitis milk sample was added to each well (A1 to C8).
In addition, each well received one drop of clinical sample from a transfer pipette which was on average about 35 mg. This was determined through weighing the well plate prior and after the addition of clinical mastitis samples. This weight was then divided by 24.
as §1, with “•” for “Abbreviations •”, “red.” for “red. Bacteria Identification”
Columns A to C and rows 1 and 2 were used for bacteria identification. A1: coagulase positive Staph; A2: Staphylococci; B1: Strep Group D; B2: -; C1: general enrichment media (gram+ and gram-); C2: coliform bacteria.
Column A3 to A8: serial dilution of benzyl penicillin as potassium. Drug concentrations given as free form ranging between 4 ug/ml to 0.05 ug/ml. Column B3 to B8: serial dilution of ceftiofur as hydrochloride. Drug concentrations given as free form ranging between 4 ug/ml to 0.05 ug/ml. Column C3 to C8: serial dilution of cloxacillin as sodium. Drug concentrations given as free form ranging between 4 ug/ml to 0.05 ug/ml.

Measured: Colour of media in each well

CC1(C)S[C@@H]2[C@H](NC(=O)Cc3ccccc3)C(=O)N2[C@H]1C(=O)O [benzyl penicillin]
yellow: ID 2, T = 48 h, 37° C., plate configuration #1, drug 0.05 μg/ml | ID 2, T = 48 h, 37° C., plate configuration #1, drug 0.1 μg/ml | ID 2, T = 48 h, 37° C., plate configuration #1, drug 0.5 μg/ml | ID 2, T = 48 h, 37° C., plate configuration #1, drug 1 μg/ml | ID 2, T = 48 h, 37° C., plate configuration #1, drug 2 μg/ml | ID 2, T = 48 h, 37° C., plate configuration #1, drug 4 μg/ml | ID 3, T = 22 h, 37° C., plate configuration #1, drug 0.05 μg/ml | ID 3, T = 22 h, 37° C., plate configuration #1, drug 0.1 μg/ml | ID 3, T = 22 h, 37° C., plate configuration #1, drug 0.5 μg/ml | ID 3, T = 22 h, 37° C., plate configuration #1, drug 1 μg/ml | ID 3, T = 22 h, 37° C., plate configuration #1, drug 2 μg/ml | ID 3, T = 22 h, 37° C., plate configuration #1, drug 4 μg/ml | ID 3, T = 23 h, 37° C., Table 34, drug 0.05 μg/ml | ID 3, T = 23 h, 37° C., Table 34, drug 0.1 μg/ml | ID 3, T = 23 h, 37° C., Table 34, drug 0.5 μg/ml | ID 3, T = 23 h, 37° C., Table 34, drug 1 μg/ml | ID 3, T = 23 h, 37° C., Table 34, drug 2 μg/ml | ID 3, T = 23 h, 37° C., Table 34, drug 4 μg/ml | ID 4, T = 22 h, 37° C., plate configuration #1, drug 0.05 μg/ml | ID 4, T = 22 h, 37° C., plate configuration #1, drug 0.1 μg/ml | ID 4, T = 22 h, 37° C., plate configuration #1, drug 0.5 μg/ml | ID 4, T = 22 h, 37° C., plate configuration #1, drug 4 μg/ml
orange: ID 1, T = 22 h, 37° C., plate configuration #1, drug 0.05 μg/ml | ID 4, T = 22 h, 37° C., plate configuration #1, drug 1 μg/ml | ID 4, T = 22 h, 37° C., plate configuration #1, drug 2 μg/ml
red: ID 1, T = 22 h, 37° C., plate configuration #1, drug 0.1 μg/ml | ID 1, T = 22 h, 37° C., plate configuration #1, drug 0.5 μg/ml | ID 1, T = 22 h, 37° C., plate configuration #1, drug 1 μg/ml | ID 1, T = 22 h, 37° C., plate configuration #1, drug 2 μg/ml | ID 1, T = 22 h, 37° C., plate configuration #1, drug 4 μg/ml | ID 3, T~7 h, 37° C., Table 34, drug 0.05 μg/ml | ID 3, T~7 h, 37° C., Table 34, drug 0.1 μg/ml | ID 3, T~7 h, 37° C., Table 34, drug 0.5 μg/ml | ID 3, T~7 h, 37° C., Table 34, drug 1 μg/ml | ID 3, T~7 h, 37° C., Table 34, drug 2 μg/ml | ID 3, T~7 h, 37° C., Table 34, drug 4 μg/ml | ID 3, T~11 h, 37° C., Table 34, drug 0.05 μg/ml | ID 3, T~11 h, 37° C., Table 34, drug 0.1 μg/ml | ID 3, T~11 h, 37° C., Table 34, drug 0.5 μg/ml | ID 3, T~11 h, 37° C., Table 34, drug 1 μg/ml | ID 3, T~11 h, 37° C., Table 34, drug 2 μg/ml | ID 3, T~11 h, 37° C., Table 34, drug 4 μg/ml | ID 5, T = 23 h, 37° C., plate configuration #2, drug 0.05 μg/ml | ID 5, T = 23 h, 37° C., plate configuration #2, drug 0.1 μg/ml | ID 5, T = 23 h, 37° C., plate configuration #2, drug 0.5 μg/ml | ID 5, T = 23 h, 37° C., plate configuration #2, drug 1 μg/ml | ID 5, T = 23 h, 37° C., plate configuration #2, drug 2 μg/ml | ID 5, T = 23 h, 37° C., plate configuration #2, drug 4 μg/ml | ID 5 to 8, T = 0 h (prior incubation, reference), plate configuration #2, drug 0.05 μg/ml | ID 5 to 8, T = 0 h (prior incubation, reference), plate configuration #2, drug 0.1 μg/ml | ID 5 to 8, T = 0 h (prior incubation, reference), plate configuration #2, drug 0.5 μg/ml
